Assay results taken from US7737177B2, “Processes for preparing crystalline and amorphous mupirocin calcium” (priority 2001, dated 2010).
Like-named read-outs stand apart in the source and are kept apart here.

Columns and labels:
[1] = thermal stability reported by Baker et al. (purity after storage); format: physicochemical
Description: The Baker et al. patents disclose preparing amorphous form of mupirocin calcium by crystallization from an aqueous solution consisting of 50% methanol followed by trituration with dry ether.
Baker et al. expresses its assay in relation to psuedomonic acid. The assay of the present invention is expressed differently, as illustrated by Table-1.
In connection with amorphous mupirocin calcium, the assay of the present invention can be converted into the assay expressed as in Baker et al. by multiplying with a factor of 0.9637. This 89.9% assay of Baker et al. corresponds to a 93.29% assay as calculated by the method of the present invention.
In connection with mupirocin calcium dihydrate, the 92.1% assay of Baker et al. corresponds to a 98.88% assay as expressed by the present invention.

[2] = thermal stability on storage (HPLC assay, Karl Fischer water, HPLC impurities); format: physicochemical; parameters: Total Impurity: unit not given here
Protocol: As used herein, the term “assay” refers to a determination of purity/presence of a quantity of a substance as described by the European Pharmacopoeia (“EP”). EUROPEAN PHARMACOPOEIA, Fourth Edition, pp 1602-1604, Council of Europe, Strasbourg, 2001. The assay is done with high pressure liquid chromatography (“HPLC”).
As used herein, the term “total impurity” refers to the sum of all areas under the peaks of impurities as described by the European Pharmacopoeia. It is determined by another HPLC method and is different than the assay.
The present invention provides for amorphous mupirocin calcium with high thermal stability. Thermal stability is defined as the ability to resist chemical degradation during storage, especially in light of the conditions during storage. The higher purity and […] of amorphous mupirocin calcium makes it less susceptible to chemical degradation during storage.
Glass ampoule in Aluminum laminate bag with silica gel was used as the packing system.
Relative humidity was exactly 60%.
The water content was measured by the Karl Fischer method.
High pressure liquid chromatography (HPLC) was performed on a Zorbax® C-8 (5 um; 250×4.6 mm), reverse phase column with ammonium acetate buffer solution in water: tetrahydrofuran mixture as eluent. Detected by U.V. spectroscopy at λ=240 nm.
The assay also used the same HPLC instruments.

[3] = cited from earlier work; for Purity after storage: expressed as a percentage of pure free pseudomonic acid
[4] = Baker et al., Column 1, Lines 31-33; cited from earlier work
[5] = test system: Gram positive bacteria (e.g. Staphylococcus aureus, Streptococcus pyogenes, Streptococcus pneumoniae, Klebsiella pneumoniae) and some Gram negative bacteria (e.); details: mainly Gram positive and some Gram negative bacteria; cited from earlier work
[6] = both for humans and animals; cited from earlier work
[7] = according to the maker of Bactroban, cited from earlier work
[8] = 1 Kg batch, 0 months at 2–8° C.
[9] = 1 Kg batch, 0.5 months at 2–8° C.
[10] = 1 Kg batch, 0.5 months at 25° C.
[11] = 1 Kg batch, 1.0 months at 2–8° C.
[12] = 1 Kg batch, 2.0 months at 2–8° C.
[13] = 187.2 grams batch, 2° C.-8° C. 60% RH, 0 month
[14] = 187.2 grams batch, 2° C.-8° C. 60% RH, 1 month
[15] = 187.2 grams batch, 2° C.-8° C. 60% RH, 2 months
[16] = 187.2 grams batch, 2° C.-8° C. 60% RH, 3 months
[17] = 187.2 grams batch, 25° C./60% RH, 0 month
[18] = 187.2 grams batch, 25° C./60% RH, 1 month
[19] = 187.2 grams batch, 25° C./60% RH, 2 months
[20] = 187.2 grams batch, 25° C./60% RH, 3 months

In the case of `C/C(=C\C(=O)OCCCCCCCCC(=O)[O-])C[C@@H]1OC[C@H](C[C@@H]2O[C@H]2[C@@H](C)[C@H](C)O)[C@@H](O)[C@H]1O.C/C(=C\C(=O)OCCCCCCCCC(=O)[O-])C[C@@H]1OC[C@H](C[C@@H]2O[C@H]2[C@@H](C)[C@H](C)O)[C@@H](O)[C@H]1O.O.O.[Ca+2]` [Anhydrous amorphous mupirocin calcium, mupirocin calcium], the Purity after storage ([1]; 2 weeks, 37° C., expressed as a percentage of mupirocin calcium anhydrous) is reported as 91.14%, the Purity after storage ([1]; 2 weeks, 50° C., expressed as a percentage of mupirocin calcium anhydrous) is reported as 74.71% and the Purity after storage ([1]; 2 weeks, 80° C., expressed as a percentage of mupirocin calcium anhydrous) is reported as 13.05%. The Purity after storage ([1]; 8 days, 80° C., expressed as a percentage of mupirocin calcium anhydrous) was 27.05%, the Purity after storage ([1]; 10 days, 50° C., expressed as a percentage of mupirocin calcium anhydrous) was 77.70% and the “level of impurity MUP II (impurity E in the EP)” value ([2]; after storage for one month) was “more than 1%”. The “total level of impurities (not assay)” value ([2]; after two months of storage, FIGS. 9 and 10) was “more than 3.5%”, the Purity after storage ([3]; 2 weeks, 37° C.) was 87.83% and the Purity after storage ([3]; 2 weeks, 50° C.) was 72.0%. For the same compound, the Purity after storage ([3]; 2 weeks, 80° C.) was 12.58%, the Purity after storage ([3]; 8 days, 80° C.) was 26.07% and the Purity after storage ([3]; 10 days, 50° C.) was 74.88%. For the same compound, the thermal stability ([3]; Baker et al., Column 1, Lines 31-33) was “poor thermal stability”, the “deterioration at high temperatures” value ([3]; chart in Columns 8 and 9 of the '093 patent) was “rapid deterioration at high temperatures” and the water solubility [4] was “sparingly water soluble”.
With `C/C(=C\C(=O)OCCCCCCCCC(=O)O)C[C@@H]1OC[C@H](C[C@@H]2O[C@H]2[C@@H](C)[C@H](C)O)[C@@H](O)[C@H]1O` [Crystalline mupirocin calcium dihydrate, mupirocin calcium dihydrate] the Purity after storage ([1]; 2 weeks, 37° C., expressed as a percentage of mupirocin calcium dihydrate) was 99.08%, the Purity after storage ([1]; 2 weeks, 50° C., expressed as a percentage of mupirocin calcium dihydrate) was 97.60% and the Purity after storage ([1]; 2 weeks, 80° C., expressed as a percentage of mupirocin calcium dihydrate) was 92.95%. For the same compound, the Purity after storage ([1]; 8 days, 80° C., expressed as a percentage of mupirocin calcium dihydrate) was 95.91%, the Purity after storage ([1]; 10 days, 50° C., expressed as a percentage of mupirocin calcium dihydrate) was 97.79% and the Purity after storage ([3]; 2 weeks, 37° C., calcium dihydrate) was 92.28%. The Purity after storage ([3]; 2 weeks, 50° C., calcium dihydrate) was 90.90%, the Purity after storage ([3]; 2 weeks, 80° C., calcium dihydrate) was 86.57% and the Purity after storage ([3]; 8 days, 80° C., calcium dihydrate) was 89.33%. For the same compound, the Purity after storage ([3]; 10 days, 50° C., calcium dihydrate) was 91.08%.
In the case of `C/C(=C\C(=O)OCCCCCCCCC(=O)O)C[C@@H]1OC[C@H](C[C@@H]2O[C@H]2[C@@H](C)[C@H](C)O)[C@@H](O)[C@H]1O` [Pseudomonic acid A, 9-{4[5S(2S,3S-epoxy-5S-hydroxy-4S-methylhexyl)-3R,4R-dihydroxy-tetrahydropyran-2S-yl]-3-methylbut-2(E)-enoyloxy}nonanoic acid], the minimal inhibiting concentration [5] is listed as 0.02 to 0.5 µg/mL, the Purity after storage ([3]; 2 weeks, 37° C.) is listed as 90.61% and the Purity after storage ([3]; 2 weeks, 50° C.) is listed as 51.18%. The Purity after storage ([3]; 2 weeks, 80° C.) was 0%, the Purity after storage ([3]; 8 days, 80° C.) was 0% and the Purity after storage ([3]; 10 days, 50° C.) was 71.59%. For the same compound, the toxicity [6] was “very low toxicity”.
`C/C(=C\C(=O)OCCCCCCCCC(=O)[O-])C[C@@H]1OC[C@H](C[C@@H]2O[C@H]2[C@@H](C)[C@H](C)O)[C@@H](O)[C@H]1O.C/C(=C\C(=O)OCCCCCCCCC(=O)[O-])C[C@@H]1OC[C@H](C[C@@H]2O[C@H]2[C@@H](C)[C@H](C)O)[C@@H](O)[C@H]1O.O.O.[Ca+2]` [amorphous mupirocin calcium, mupirocin calcium] gave an Assay [2, 8] of 98.5, a Water [2, 8] of 1.2 and an Assay ([2]; 1 Kg batch, 0 months at 25° C.) of 98.5. For the same compound, the Water ([2]; 1 Kg batch, 0 months at 25° C.) was 1.5, the Assay [2, 9] was 95.2 and the “Total Impurity” value [2, 9] was 2.71. The Water [2, 9] was 1.3, the Assay [2, 10] was 97.4 and the “Total Impurity” value [2, 10] was 2.83. For the same compound, the Water [2, 10] was 1.2, the Assay ([2]; 1 Kg batch, 1 month at 25° C.) was 98.3 and the “Total Impurity” value ([2]; 1 Kg batch, 1 month at 25° C.) was 3.18. The Water ([2]; 1 Kg batch, 1 month at 25° C.) was 1.9, the Assay [2, 11] was 95.5 and the “Total Impurity” value [2, 11] was 2.88. For the same compound, the Water [2, 11] was 1.9, the Assay [2, 12] was 96.7 and the “Total Impurity” value [2, 12] was 2.86. For the same compound, the Water [2, 12] was 1.6, the Assay ([2]; 1 Kg batch, 2 months at 25° C.) was 96.5 and the “Total Impurity” value ([2]; 1 Kg batch, 2 months at 25° C.) was 3.21. For the same compound, the Water ([2]; 1 Kg batch, 2 months at 25° C.) was 1.5, the “Assay (HPLC)” value [2, 13] was 96.0% and the Description [2, 13] was “White”. The “Impurities (HPLC) Imp. C” value [2, 13] was 1.31%, the “Impurities (HPLC) MUP II” value [2, 13] was 0.31% and the “Impurities (HPLC) Total Impurities” value [2, 13] was 2.22%. The Water [2, 13] was 0.6%, the “Assay (HPLC)” value [2, 14] was 95.6% and the Description [2, 14] was “White”. The Water [2, 14] was 0.8%, the “Assay (HPLC)” value [2, 15] was 95.3% and the Description [2, 15] was “White”. For the same compound, the “Impurities (HPLC) Imp. C” value [2, 15] was 1.32%, the “Impurities (HPLC) MUP II” value [2, 15] was 0.41% and the “Impurities (HPLC) Total Impurities” value [2, 15] was 2.43%. The Water [2, 15] was 0.7%, the “Assay (HPLC)” value [2, 16] was 96.1% and the Description [2, 16] was “White”. For the same compound, the “Impurities (HPLC) Imp. C” value [2, 16] was 1.35%, the “Impurities (HPLC) MUP II” value [2, 16] was 0.42% and the “Impurities (HPLC) Total Impurities” value [2, 16] was 2.62%. For the same compound, the Water [2, 16] was 1.1%, the “Assay (HPLC)” value [2, 17] was 96.0% and the Description [2, 17] was “White powder”. The “Impurities (HPLC) Imp. C” value [2, 17] was 1.31%, the “Impurities (HPLC) MUP II” value [2, 17] was 0.31% and the “Impurities (HPLC) Total Impurities” value [2, 17] was 2.22%. For the same compound, the Water [2, 17] was 0.6%, the “Assay (HPLC)” value [2, 18] was 97.5% and the Description [2, 18] was “White”. The Water [2, 18] was 0.8%, the “Assay (HPLC)” value [2, 19] was 94.1% and the Description [2, 19] was “White”. The “Impurities (HPLC) Imp. C” value [2, 19] was 1.34%, the “Impurities (HPLC) MUP II” value [2, 19] was 0.77% and the “Impurities (HPLC) Total Impurities” value [2, 19] was 3.02%. For the same compound, the Water [2, 19] was 0.8%, the “Assay (HPLC)” value [2, 20] was 95.9% and the Description [2, 20] was “White”. For the same compound, the “Impurities (HPLC) Imp. C” value [2, 20] was 1.37%, the “Impurities (HPLC) MUP II” value [2, 20] was 0.89% and the “Impurities (HPLC) Total Impurities” value [2, 20] was 3.25%. The Water [2, 20] was 1.0%, the total impurity content ([2]; after 2 months) was “about 3%” and the Assay ([2]; after 2 months of storage at about 25° C. and at about 2-8° C.) was “about 96%”. For the same compound, the “total level of impurity (not assay)” value ([2]; after at least two months of storage at 25° C.) was “less than 3.5%” and the “level of impurity MUP II (impurity E in the EP)” value ([2]; storage at 25° C. and RH 60% for at least two months) was ≤ 1%.
In the case of `C/C(=C\C(=O)OCCCCCCCCC(=O)[O-])C[C@@H]1OC[C@H](C[C@@H]2O[C@H]2[C@@H](C)[C@H](C)O)[C@@H](O)[C@H]1O.C/C(=C\C(=O)OCCCCCCCCC(=O)[O-])C[C@@H]1OC[C@H](C[C@@H]2O[C@H]2[C@@H](C)[C@H](C)O)[C@@H](O)[C@H]1O.O.O.[Ca+2]` [mupirocin calcium], the side effects ([7]; administered intravenously at 250 mg) is given as “without any major side effects” and the side effects ([7]; administered orally at 500 mg) is given as “without any major side effects”.
